Results published in the NIST ThermoML archive (doi:10.1016/j.jct.2015.11.025).
± gives the expanded uncertainty stated by the source.

What was measured:
[1] = Crystal
[2] = Molar enthalpy of transition or fusion; details: Crystal; DSC

CCOC(=O)Cc1c(C(=O)OCC)sc(N)c1C#N
mass density ([1]; 298.15 K, 101.33 kPa, flotation method): 1297 ± 2 kg/m3
Normal melting temperature ([1]; DTA): 136.90 ± 1.1 °C
Molar enthalpy of transition or fusion [2]: 9.77 ± 0.263 kcal/mol
